Data from patent publication EP1202975B1, “SUBSTITUTED POLYCYCLIC ARYL AND HETEROARYL PYRAZINONES USEFUL FOR SELECTIVE INHIBITION OF THE COAGULATION CASCADE” (Pharmacia Corporation, priority 1999, dated 2000).

Columns and labels:
TF-VIIa = target: T1, TF-VIIa (Homo sapiens, UniProt P08709); assay: TF-VIIa Assay; format: biochemical
T1 construct: 2nM recombinant human factor VIIa; purchased American Diagnostica, Greenwich CT; host or cells: soluble TF made in house in E. coli

Human factor Xa = Human factor Xa (Homo sapiens, UniProt P00742)
Chain of Human factor Xa (P00742 235-488 limits assumed): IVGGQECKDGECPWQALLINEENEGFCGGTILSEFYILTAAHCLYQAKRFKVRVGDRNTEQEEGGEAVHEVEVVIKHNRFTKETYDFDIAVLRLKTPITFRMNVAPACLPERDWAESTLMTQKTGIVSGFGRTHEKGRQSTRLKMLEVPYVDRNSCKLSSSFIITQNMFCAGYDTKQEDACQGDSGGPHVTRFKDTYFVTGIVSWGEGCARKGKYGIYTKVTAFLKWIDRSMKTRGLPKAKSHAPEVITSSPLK
Chain of Human factor Xa (P00742 41-179 limits assumed): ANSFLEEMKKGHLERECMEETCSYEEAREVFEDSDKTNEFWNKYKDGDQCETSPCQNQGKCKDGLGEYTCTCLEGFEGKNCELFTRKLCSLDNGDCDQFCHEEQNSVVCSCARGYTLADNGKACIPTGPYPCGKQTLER

T1 sequence (P08709 213-466 limits assumed): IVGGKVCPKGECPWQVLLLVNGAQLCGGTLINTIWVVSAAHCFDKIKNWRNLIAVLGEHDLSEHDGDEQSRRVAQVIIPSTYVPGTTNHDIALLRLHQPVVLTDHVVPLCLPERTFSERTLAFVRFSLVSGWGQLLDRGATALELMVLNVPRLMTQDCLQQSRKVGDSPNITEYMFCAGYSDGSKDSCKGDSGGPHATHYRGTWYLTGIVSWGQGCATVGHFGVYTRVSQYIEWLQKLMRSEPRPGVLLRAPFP
T1 sequence (P08709 61-212 limits assumed): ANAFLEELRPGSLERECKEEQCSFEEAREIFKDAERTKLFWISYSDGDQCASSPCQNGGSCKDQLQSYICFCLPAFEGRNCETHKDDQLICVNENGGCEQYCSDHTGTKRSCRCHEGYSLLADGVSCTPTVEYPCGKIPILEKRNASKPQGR
T1 sequence (P13726 33-251 partner limits assumed): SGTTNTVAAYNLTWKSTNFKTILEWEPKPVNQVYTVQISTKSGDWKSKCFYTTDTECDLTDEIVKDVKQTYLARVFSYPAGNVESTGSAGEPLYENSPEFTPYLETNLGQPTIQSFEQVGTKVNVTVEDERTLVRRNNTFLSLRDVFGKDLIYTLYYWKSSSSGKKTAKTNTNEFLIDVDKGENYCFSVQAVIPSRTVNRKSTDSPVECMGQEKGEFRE

SMILES | % Inhibition TF-VIIa (100 µM) (TF-VIIa) | % Inhibition Factor Xa (100 µM) (Human factor Xa)
O=C(Cn1c(-c2ccc3c(c2)OCO3)c(Cl)nc(NCCN2CCOCC2)c1=O)NCCc1ccncc1 [Example E-0047] | 0% | 0%
O=C(Cn1c(-c2ccc3c(c2)OCO3)c(Cl)nc(NCc2ccncc2)c1=O)NCCc1ccncc1 [Example E-0048] | 0% | 0%
O=C(Cn1c(-c2ccc(-c3ccccc3)cc2)c(Cl)nc(NCCc2cccnc2)c1=O)NCCc1ccncc1 [Example E-0053] | 0% | 0%
O=C(Cn1c(-c2ccc(-c3ccccc3)cc2)c(Cl)nc(NCCN2CCOCC2)c1=O)NCCc1ccncc1 [Example E-0055] | 0% | 0%
O=C(Cn1c(-c2ccc(-c3ccccc3)cc2)c(Cl)nc(NCc2ccncc2)c1=O)NCCc1ccncc1 [Example E-0056] | 0% | 0%
O=C(Cn1c(Cc2ccccc2)c(Cl)nc(NCc2ccccc2)c1=O)NCCc1ccncc1 [Example E-0057] | 0% | 6%
O=C(Cn1c(Cc2ccccc2)c(Cl)nc(NCCc2ccccc2)c1=O)NCCc1ccncc1 [Example E-0058] | 0% | 0%
O=C(Cn1c(Cc2ccccc2)c(Cl)nc(NCCc2cccc(Cl)c2)c1=O)NCCc1ccncc1 [Example E-0059] | 0% | 0%
O=C(Cn1c(Cc2ccccc2)c(Cl)nc(NCCc2ccc(Cl)cc2)c1=O)NCCc1ccncc1 [Example E-0060] | 0% | 0%
O=C(Cn1c(Cc2ccccc2)c(Cl)nc(NCCc2cccnc2)c1=O)NCCc1ccncc1 [Example E-0061] | 0% | 0%
O=C(Cn1c(Cc2ccccc2)c(Cl)nc(NCCc2ccncc2)c1=O)NCCc1ccncc1 [Example E-0062] | 0% | 0%
O=C(Cn1c(Cc2ccccc2)c(Cl)nc(NCCN2CCOCC2)c1=O)NCCc1ccncc1 [Example E-0063] | 0% | 0%
O=C(Cn1c(Cc2ccccc2)c(Cl)nc(NCc2ccncc2)c1=O)NCCc1ccncc1 [Example E-0064] | 0% | 0%
O=C(Cn1c(CCc2ccccc2)c(Cl)nc(NCc2ccccc2)c1=O)NCCc1ccncc1 [Example E-0065] | 0% | 0%
O=C(Cn1c(CCc2ccccc2)c(Cl)nc(NCCc2ccccc2)c1=O)NCCc1ccncc1 [Example E-0066] | 0% | 0%
O=C(Cn1c(CCc2ccccc2)c(Cl)nc(NCCc2cccc(Cl)c2)c1=O)NCCc1ccncc1 [Example E-0067] | 0% | 0%
O=C(Cn1c(CCc2ccccc2)c(Cl)nc(NCCc2ccc(Cl)cc2)c1=O)NCCc1ccncc1 [Example E-0068] | 0% | 0%
O=C(Cn1c(CCc2ccccc2)c(Cl)nc(NCCc2cccnc2)c1=O)NCCc1ccncc1 [Example E-0069] | 0% | 0%
O=C(Cn1c(CCc2ccccc2)c(Cl)nc(NCCc2ccncc2)c1=O)NCCc1ccncc1 [Example E-0070] | 0% | 0%
O=C(Cn1c(CCc2ccccc2)c(Cl)nc(NCCN2CCOCC2)c1=O)NCCc1ccncc1 [Example E-0071] | 0% | 0%
O=C(Cn1c(CCc2ccccc2)c(Cl)nc(NCc2ccncc2)c1=O)NCCc1ccncc1 [Example E-0072] | 0% | 0%
COc1ccc(-c2c(Cl)nc(NCc3ccccc3)c(=O)n2CC(=O)NCCc2ccncc2)cc1 [Example E-0097] | 0% | 3%
